The subject of one test is HEL cells. Put plainly: alamarBlue cell viability assay. The class given is cell-based. The settings on record: Homo sapiens, 48 h, read-out: Cell Viability IC50 HEL. A general note: Alamar Blue is a resazurin reagent that responds to reducing activity.
The target in a further test is JAK1 JH2 (Homo sapiens, UniProt P23458). In words: More sensitive FP binding assay, Bodipy FL-labeled JNJ-7706621 tracer.
A further test concerns SET-2 cells. In words: alamarBlue cell viability assay. The class given is cell-based. The settings on record: Homo sapiens, read-out: Cell Viability IC50 SET-2.
For another test, the target named is JAK1 JH1 D1003N (Homo sapiens, UniProt P23458, D1003N). Put plainly: More sensitive FP binding assay, Bodipy FL-labeled JNJ-7706621 tracer.
The target of the next test is JAK2 JH2 V617F (Homo sapiens, UniProt O60674, V617F). Put plainly: Fluorescence polarization binding assay, Bodipy FL-ATP tracer. The following applies: for IC50: FP, Bodipy FL-ATP tracer, lower detection limit of assay 3.5 µM, read-out: IC50 value for binding against JAK2 JH2 V617F. Set-up: Hyperactive mutation V617F in the JAK2 regulatory pseudokinase domain (JH2); His tag (C); made in house; host or cells: High Five or Sf9 insect cells.

The target of another test is JAK2 JH1 D976N (Homo sapiens, UniProt O60674, D976N). Described as above. The following applies: for inhibition at 100 µM: read-out: inhibition-% of tracer binding to JAK2 JH1.
The target of a further test is T1, JAK2 JH2 wild-type (Homo sapiens, UniProt O60674).
T1 construct: Human JAK2 JH2 (503-827); hexa histidine-tag (C); made in house; host or cells: High Five or Sf9 insect cells
Described as above. The settings on record: for IC50 / inhibition at 100 µM: FP, Bodipy FL-ATP tracer; for IC50: average ± standard deviation, lower detection limit 3.5 µM, read-out: IC50 of tracer binding to JAK2 JH2 wt; for inhibition at 100 µM: 100 µM analog concentration.

Another test deals with Ba/F3 hJAK2 V617F cells. In words: alamarBlue cell viability assay. It is filed as cell-based, murine. The following applies: Mus musculus, BaF3, 48 h, n=3.
Test [1] concerns Ba/F3-hJAK2 wildtype cells. Put plainly: alamarBlue cell viability assay. It is filed as cell-based, murine. The following applies: Mus musculus, 48 h, n=3, read-out: Cell viability IC50 Ba/F3-hJAK2 wt.

For 35 molecules, IC50, inhibition and Kd results are on record in PMC9865020, “Identification of Novel Small Molecule Ligands for JAK2 Pseudokinase Domain” (Pharmaceuticals, 2023).

Where two headings read alike, the source gives them in different places. A value given as a limit tells only on which side of the number the result lay.

Sequence of JAK2 JH2 V617F (O60674 545-809 V617F limits assumed): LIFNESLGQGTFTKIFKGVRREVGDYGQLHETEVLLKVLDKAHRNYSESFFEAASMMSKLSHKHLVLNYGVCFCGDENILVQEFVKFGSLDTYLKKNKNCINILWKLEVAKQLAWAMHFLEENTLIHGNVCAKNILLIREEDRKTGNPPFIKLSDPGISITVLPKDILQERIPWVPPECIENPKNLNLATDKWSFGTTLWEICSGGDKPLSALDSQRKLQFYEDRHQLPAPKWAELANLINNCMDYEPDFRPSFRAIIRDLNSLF
Sequence of JAK2 JH1 D976N (O60674 836-1132 D976N): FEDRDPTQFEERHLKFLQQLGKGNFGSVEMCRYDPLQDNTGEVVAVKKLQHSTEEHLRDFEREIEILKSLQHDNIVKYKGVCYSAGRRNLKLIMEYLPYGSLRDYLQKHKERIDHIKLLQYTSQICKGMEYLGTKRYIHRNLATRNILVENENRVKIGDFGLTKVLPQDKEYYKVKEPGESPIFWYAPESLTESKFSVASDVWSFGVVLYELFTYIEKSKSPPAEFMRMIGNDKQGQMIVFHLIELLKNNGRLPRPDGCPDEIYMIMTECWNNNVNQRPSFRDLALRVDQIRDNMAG
T1 sequence (O60674 503-827): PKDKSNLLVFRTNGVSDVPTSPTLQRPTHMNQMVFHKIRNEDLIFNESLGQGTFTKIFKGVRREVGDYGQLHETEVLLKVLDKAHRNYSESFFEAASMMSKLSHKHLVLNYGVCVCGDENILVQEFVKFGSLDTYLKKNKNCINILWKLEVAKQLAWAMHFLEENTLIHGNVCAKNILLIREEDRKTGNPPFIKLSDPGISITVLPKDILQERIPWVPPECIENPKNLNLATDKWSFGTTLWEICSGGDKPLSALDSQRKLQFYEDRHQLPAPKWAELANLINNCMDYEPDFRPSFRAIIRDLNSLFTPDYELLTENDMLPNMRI
Sequence of JAK1 JH2 (P23458 553-836): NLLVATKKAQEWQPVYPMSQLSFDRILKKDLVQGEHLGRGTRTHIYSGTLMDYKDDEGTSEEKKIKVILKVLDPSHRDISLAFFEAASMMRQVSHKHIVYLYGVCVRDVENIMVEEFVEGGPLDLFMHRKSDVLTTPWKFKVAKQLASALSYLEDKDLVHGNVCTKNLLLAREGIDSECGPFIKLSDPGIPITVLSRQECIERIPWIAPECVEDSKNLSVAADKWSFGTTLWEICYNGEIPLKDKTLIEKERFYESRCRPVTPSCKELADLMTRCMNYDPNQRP
Sequence of JAK1 JH1 D1003N (P23458 866-1154 D1003N): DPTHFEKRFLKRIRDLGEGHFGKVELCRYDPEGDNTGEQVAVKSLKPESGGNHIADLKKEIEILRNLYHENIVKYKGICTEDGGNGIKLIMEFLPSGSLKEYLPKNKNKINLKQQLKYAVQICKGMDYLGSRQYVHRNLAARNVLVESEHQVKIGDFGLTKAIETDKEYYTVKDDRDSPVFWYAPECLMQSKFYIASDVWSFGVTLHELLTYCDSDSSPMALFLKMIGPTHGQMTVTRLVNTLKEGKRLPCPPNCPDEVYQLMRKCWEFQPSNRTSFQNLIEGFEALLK

Consider `O=C(Nc1c[nH]nc1-c1nc2ccc(CN3CCOCC3)cc2[nH]1)NC1CC1` [Compound 2, AT9283, reference compound], for which the IC50 in the test on HEL cells (HEL) was found to be 1.3 µM; at JAK1 JH2, 0.11 µM; in the test on SET-2 cells (SET-2, 48 h), 0.54 µM; at JAK1 JH1 D1003N it was 0.06 µM.

On to `Nc1nc(Nc2ccc(S(N)(=O)=O)cc2)nn1C(=S)Nc1c(F)cccc1F` [Compound 3, Cdk1/2 inhibitor III, reference compound], for which the IC50 at JAK2 JH2 V617F, at JAK2 JH1 D976N and at JAK2 JH2 wild-type was ≤ 3.5 µM in each case.

For the molecule `CN(Cc1nc(N)nc(Nc2ccccc2)n1)Cc1ccc(Br)s1` [Compound 5], the IC50 was 91 µM at JAK2 JH2 V617F and 95 ± 12 µM at JAK2 JH2 wild-type. Moreover, the inhibition at 100 µM turned out to be 5% at JAK2 JH1 D976N and 60% at JAK2 JH2 wild-type.

Turning to `CCN(CC)C(=O)c1ccc(Nc2nc(OCC3CCCCC3)c3nc[nH]c3n2)cc1` [Compound 6, Cdk2 inhibitor IV, reference compound], the IC50 at JAK2 JH2 V617F, at JAK2 JH1 D976N and at JAK2 JH2 wild-type was ≤ 3.5 µM in each case.

For the molecule `c1nc2nc(Nc3ccc(N4CCOCC4)cc3)nc(NC3CCCCC3)c2[nH]1` [Compound 7, Reversine, reference compound], the IC50 was determined as 0.48 µM in the test on Ba/F3 hJAK2 V617F cells; 9.3 µM in the test with HEL cells (HEL (JAK2 V617F homozygous), alamarBlue, upper detection limit 40 µM); 0.15 µM on JAK1 JH2; 4 µM with SET-2 cells (SET-2 (JAK2 V617F heterozygous), 48 h, alamarBlue, upper detection limit 40 µM); 0.38 µM in test [1]; 0.35 µM on JAK1 JH1 D1003N.

Turning to `COC(=O)c1ccc(Nc2[nH]cnc3ncnc2-3)cc1` [Compound 8], the IC50 came out at 123 µM at JAK2 JH2 V617F and 100 ± 22 µM on JAK2 JH2 wild-type.

For `c1ccc(COc2ccc(Nc3ncnc4nc[nH]c34)cc2)cc1` [Compound 9], the IC50 came to 255 µM at JAK2 JH2 V617F and 774 ± 64 µM at JAK2 JH2 wild-type.

For `COc1cc(/C=N/Nc2ncnc3[nH]cnc23)cc(Br)c1O` [Compound 10], the IC50 at JAK2 JH2 V617F came to 155 µM; at JAK2 JH2 wild-type, 82 ± 28 µM.

`Fc1cccc(/C=N/Nc2[nH]cnc3ncnc2-3)c1` [Compound 11]: the IC50 on JAK2 JH2 V617F is 188 µM; at JAK2 JH2 wild-type, 192 ± 41 µM.

Take `Oc1cccc(/C=N/Nc2ncnc3[nH]cnc23)c1` [Compound 12]: the figures for the IC50 at JAK2 JH2 V617F and on JAK2 JH2 wild-type were 263 µM and 164 ± 11 µM, respectively.

With `COc1ccc(-c2c(C(F)(F)F)nn3c(=O)cc(-c4cccc([N+](=O)[O-])c4)[nH]c23)cc1` [Compound 13], the IC50 at JAK2 JH2 V617F was found to be 59 µM; on JAK2 JH2 wild-type it was 55 ± 5 µM. The inhibition at 100 µM on JAK2 JH1 D976N was found to be 15%; on JAK2 JH2 wild-type, 85%.

Consider `Cc1cc(Nc2cc(CN3CCOCC3)c3nc(C)c(Cc4ccc(Cl)cc4F)n3n2)n[nH]1` [Compound 14, Gandotinib, reference compound], for which the IC50 at JAK2 JH2 V617F came to 142 µM; on JAK2 JH2 wild-type, 213 ± 63 µM.

As to `Nc1nc(Nc2ccc3c(c2)CC[C@@H](N2CCCC2)CC3)nn1-c1cc2c(nn1)-c1ccccc1CCC2` [Compound 16], the inhibition at 100 µM at JAK2 JH1 D976N is 86%; on JAK2 JH2 wild-type, 79%.

Turning to `COc1ccc(Nc2nc(N)n[nH]2)cc1` [Compound 17], the inhibition at 100 µM on JAK2 JH1 D976N turned out to be 21%; at JAK2 JH2 wild-type it was 40%.

As to `Nc1nc(Nc2ccc(Cl)cc2)n[nH]1` [Compound 20], the inhibition at 100 µM at JAK2 JH1 D976N came to 19%; on JAK2 JH2 wild-type, 55%.

For the molecule `Nc1nc(Nc2ccccc2)n[nH]1` [Compound 21], the inhibition at 100 µM on JAK2 JH1 D976N came to 27%; on JAK2 JH2 wild-type, 45%.

For `COc1ccc(CNc2n[nH]c(N)n2)cc1` [Compound 22], the inhibition at 100 µM is 10% at JAK2 JH1 D976N and 1% on JAK2 JH2 wild-type.

With `Cc1ccc(Nc2nc(N)nc(CN(C)Cc3ccc(Br)s3)n2)cc1` [Compound 23], the results for the inhibition at 100 µM on JAK2 JH1 D976N and on JAK2 JH2 wild-type were 0% and 66%, respectively.

As to `CSc1ccc(CN(C)Cc2nc(N)nc(Nc3ccccc3)n2)cc1` [Compound 25], the inhibition at 100 µM on JAK2 JH1 D976N was 7%; on JAK2 JH2 wild-type it was 62%.

Consider `COc1ccc(CN(C)Cc2nc(N)nc(Nc3ccccc3)n2)cc1F` [Compound 26], for which the inhibition at 100 µM is 0% at JAK2 JH1 D976N and 56% on JAK2 JH2 wild-type.

As for `Nc1nc(CN2CCCC2c2cccs2)nc(Nc2ccccc2)n1` (centres unmarked) [Compound 27], the inhibition at 100 µM stood at 0% at JAK2 JH1 D976N and 62% on JAK2 JH2 wild-type.

In the case of `CN(Cc1nc(N)nc(Nc2ccccc2)n1)Cc1cccc(Cl)c1Cl` [Compound 28], the inhibition at 100 µM is 4% at JAK2 JH1 D976N and 69% at JAK2 JH2 wild-type.

`Nc1nc(COC(=O)c2ccoc2)nc(Nc2ccccc2)n1` [Compound 29]: the inhibition at 100 µM at JAK2 JH1 D976N was determined as 3%; at JAK2 JH2 wild-type it was 31%.

As to `CC(Sc1ccccc1F)c1nc(N)nc(Nc2ccccc2)n1` (centres unmarked) [Compound 30], the inhibition at 100 µM on JAK2 JH1 D976N was determined as 31%; at JAK2 JH2 wild-type, 57%.

Regarding `Nc1nc(CSCCn2cccn2)nc(Nc2ccccc2)n1` [Compound 31], the inhibition at 100 µM on JAK2 JH1 D976N turned out to be 11%; at JAK2 JH2 wild-type it was 37%.

For `Nc1nc(CSCc2ccc(F)cc2)nc(Nc2ccccc2)n1` [Compound 32], the inhibition at 100 µM on JAK2 JH1 D976N was determined as 18%; at JAK2 JH2 wild-type, 56%.

On to `Cc1ccc(Nc2nc(N)nc(-c3ccccc3)n2)cc1` [Compound 33], for which the inhibition at 100 µM at JAK2 JH1 D976N came out at 40%; at JAK2 JH2 wild-type it was 30%.

With `COc1ccc(-c2c(C(F)(F)F)nn3c(=O)cc(-c4ccccc4)[nH]c23)cc1` [Compound 35], the inhibition at 100 µM at JAK2 JH1 D976N was 10%; on JAK2 JH2 wild-type, 71%.

As for `COc1ccc(-c2c(C)[nH]n3c(=O)cc(-c4ccc([N+](=O)[O-])cc4)nc23)cc1` [Compound 37], the inhibition at 100 µM on JAK2 JH1 D976N and on JAK2 JH2 wild-type was 1% each time.

For `COc1ccc(-c2c(Cc3ccccc3)[nH]n3c(=O)cc(-c4ccc([N+](=O)[O-])cc4)nc23)cc1` [Compound 38], the inhibition at 100 µM on JAK2 JH1 D976N and on JAK2 JH2 wild-type was 0% in each case.

Consider `COC(=O)Cc1cc(=O)n2nc(C(F)(F)F)c(-c3ccc(OC)cc3)c2[nH]1` [Compound 39], for which the figures for the inhibition at 100 µM at JAK2 JH1 D976N and at JAK2 JH2 wild-type were 13% and 0%, respectively.

Regarding `CCCc1cc(=O)n2nc(C(F)(F)F)c(-c3ccccc3)c2[nH]1` [Compound 40], the inhibition at 100 µM at JAK2 JH1 D976N and on JAK2 JH2 wild-type was 8% throughout.

For `Cc1cc(=O)n2[nH]c(C(F)(F)F)c(-c3ccccc3)c2n1` [Compound 41], the inhibition at 100 µM on JAK2 JH1 D976N was 34%; on JAK2 JH2 wild-type, 6%.

Take `CC(C)(C)c1cc(=O)n2nc(C(F)(F)F)c(-c3ccccc3)c2[nH]1` [Compound 42]: the inhibition at 100 µM on JAK2 JH1 D976N was 27%; on JAK2 JH2 wild-type it was 18%.

On to Bodipy FL-ATP [reference compound], for which the Kd on JAK2 JH2 V617F (in the FP assay conditions, read-out: protein-tracer binding affinity, JAK2 JH2 V617F) was 7 µM; at JAK2 JH1 D976N (read-out: protein-tracer binding affinity, JAK2 JH1, in the FP assay conditions), 5 µM; on JAK2 JH2 wild-type (in the FP assay conditions, read-out: protein-tracer binding affinity, JAK2 JH2 WT), 9 µM.

What is called inhibition is the relative decrease from the control value, in per cent.
